Test results from publication PMC12992107 (Journal of medicinal chemistry, 2024).
Like-named read-outs stand apart in the source and are kept apart here. Marks after values point to notes of the source that are not given here. Blank lines part the entries; values can stand above or below the compound they belong to.

Assays:
[1] = cited from earlier work
[2] = cited from earlier work; remark: listed apart in the source
[3] = Plasma protein binding, dilution method
Pf NF54 = assay: 72 h [3H]hypoxanthine incorporation assay; type: cell-based; details: Plasmodium falciparum, NF54, 72 h
[4] = tested on: chloroquine-sensitive and chloroquine-resistant P. falciparum strains; assay: Initial antiplasmodial in vitro assessment; type: cell-based; details: Plasmodium falciparum, read-out: IC50 (range over strains)
P. falciparum strain 3D7 = assay: In vitro parasite reduction ratio; type: cell-based, Plasmodium falciparum; details: 10-fold IC50; 28 days recovery in drug-free medium
P. falciparum Dd2 Polδ = assay: Single-step resistance selection assay; type: cell-based, Plasmodium falciparum
P. falciparum isolates = assay: Ex vivo growth inhibition assay of clinical isolates; type: cell-based; details: Plasmodium falciparum
RF12 (PH-1263-C) = assay: microbe, parasite or virus in culture; type: cell-based; details: Plasmodium falciparum, 72 h, read-out: IC50, RF12 (PH-1263-C)
[5] = Chemical stability in aqueous solution; type: physicochemical; details: phosphate buffer pH 7.4, room temperature, over 24 h, n = 3
Plasma stability = type: in vitro ADME, human
[6] = Microsomal binding, equilibrium dialysis; type: in vitro ADME; details: human, human liver microsomes, microsomal binding (fraction bound), 1 μM in 0.5 mg/mL HLMs
[7] = Snapshot pharmacokinetics; type: in vivo; details: P. berghei mice, single oral administration of 3, 10 and 30 mg/kg
Plasmodium berghei [8] = assay: Standard four-day Peters test in P. berghei-infected mice; details: for cured: parasite-free mice on day 30
[9] = Calculation of hepatic clearance and hepatic extraction ratio; details: calculated from in vitro assays
[10] = Plasma protein binding, standard equilibrium dialysis assay; type: in vitro ADME
HeLa cells = details: read-out: HeLa IC50 (n1; n2); previously published; cited from earlier work
HEK293 cells = details: read-out: HEK293 IC50 (n1; n2); previously published; cited from earlier work
Plasmodium berghei [11] = details: previously published, cited from earlier work
Pf Dd2 = assay: Antiplasmodial in vitro activity, HRP2 ELISA; type: cell-based; details: Plasmodium falciparum, DD2, read-out: Pf Dd2 IC50 ± SD

Compound: CCCCN(CCCC)CCC(O)c1cc2c(Cl)cc(Cl)cc2c2cc(C(F)(F)F)ccc12 (centres unmarked) [Hf, Halofantrine]
microsomal stability (60 min), Clint [1]: Clint = 26.9 μL/min/mg^d
plasma protein binding ([2]; plasma): >99^d %

fraction unbound at 24 h, 25 ng/mL ([3]; plasma diluted 1:10 or 1:20 in 0.9% saline): 0.006
Compound: CCC(C)n1ncn(-c2ccc(N3CCN(c4ccc(OCC5COC(Cn6cncn6)(c6ccc(Cl)cc6Cl)O5)cc4)CC3)cc2)c1=O (centres unmarked) [itraconazole, reference compound]

Compound: Cl.N=C(CC(O)c1cc2c(F)cc(F)cc2c2cc(C(F)(F)F)ccc12)Nc1ccc(F)cc1 (centres unmarked) [2 (TKK130), (Z)-3-(1,3-Difluoro-6-(trifluoromethyl)phenanthrene-9-yl)-N′-(4-fluorophenyl)-3-hydroxypropanimidamid Hydrochlorid]
IC50 (Pf NF54; read-out: IC50, NF54): 12 nM
IC50 [4]: 2 to 12 nM
exposure time reducing the number of viable parasites to baseline (P. falciparum strain 3D7): ≤ 24 h
day on which treated cultures were clear (P. falciparum Dd2 Polδ; 9 nM (3-fold IC50), inocula 2 × 10^7 and 2 × 10^9): 4 days
parasite growth after selection (P. falciparum Dd2 Polδ; 9 nM, inocula 2 × 10^7 and 2 × 10^9, 60 days of recovery time): no subsequent parasite growth could be observed
IC50 (P. falciparum isolates; read-out: max IC50): 25.1 nM
IC50 (P. falciparum isolates; read-out: min IC50): 1.4 nM
IC50 (RF12 (PH-1263-C)): 4 nM
chemical stability [5]: > 90%
half-life at 25 ng/mL (Plasma stability; human, plasma): 67 h
fraction unbound at 24 h, 1 μM [6]: 0.026
time at which maximum concentration was reached [7]: 4 h
fraction unbound at 24 h, 25 ng/mL ([3]; plasma): 0.004
signs of toxicity during the in vivo studies (Plasmodium berghei [8]; mice, oral dosing): no obvious signs of toxicity
cured (Plasmodium berghei [8]; oral 4 × 3 mg/kg): 0/3
cured (Plasmodium berghei [8]; oral 4 × 10 mg/kg): 1/3
cured (Plasmodium berghei [8]; oral 4 × 30 mg/kg): 3/3
cured (Plasmodium berghei [8]; oral 4 × 50 mg/kg): 3/3
hepatic extraction ratio [9]: 0.17
hepatic clearance ([9]; hepatic blood flow 1500 mL/min): 0.25 L/min

Compound: COc1ccc(/N=C(\N)CC(O)c2cc3c(F)cc(F)cc3c3cc(C(F)(F)F)ccc23)cc1 (centres unmarked) [1 (TKK129)]
exposure time reducing the number of viable parasites to baseline (P. falciparum strain 3D7): ≤ 24 h
plasma stability (Plasma stability; at 37 °C, time without decrease): 24 h at 37 °C
fraction unbound at 24 h, 25 ng/mL [10]: < 0.01
IC50 (HeLa cells): 46100 nM
IC50 (HEK293 cells): 36800 nM
MSD (Plasmodium berghei [11]; oral 4 × 3 mg/kg): euthanized
cured (Plasmodium berghei [11]; oral 4 × 3 mg/kg): 0/3
cured (Plasmodium berghei [11]; oral 4 × 10 mg/kg): 0/3
cured (Plasmodium berghei [11]; oral 4 × 30 mg/kg): 1/3
cured (Plasmodium berghei [11]; oral 4 × 50 mg/kg): 2/3

Compound: C[C@@H]1CC[C@H]2[C@@H](C)C(=O)O[C@@H]3O[C@@]4(C)CC[C@@H]1[C@]32OO4 [AS, Artemisinin, reference compound]
cured (Plasmodium berghei [8]; oral 4 × 30 mg/kg): 0/10

Compound: CCN(CC)CCCC(C)Nc1ccnc2cc(Cl)ccc12 (centres unmarked) [CQ, Chloroquine]
IC50 (Pf Dd2): 240 ± 130 nM
IC50 (Pf NF54; read-out: IC50, NF54): 11 nM
IC50 (Pf NF54; read-out: Pf NF54 IC50 ± SD): 12 ± 1 nM
cured (Plasmodium berghei [8]; oral 4 × 30 mg/kg): 0/10

Compound: O=C1C(O)=C([C@H]2CC[C@H](c3ccc(Cl)cc3)CC2)C(=O)c2ccccc21 [atovaquone, reference compound]
exposure time reducing the number of viable parasites to baseline (P. falciparum strain 3D7): 120 h

Compound: CCc1nc(N)nc(N)c1-c1ccc(Cl)cc1 [pyrimethamine, reference compound]
exposure time reducing the number of viable parasites to baseline (P. falciparum strain 3D7): 72 h

Compound: CCCCN(CCCC)CC(O)c1cc(Cl)cc2c1-c1ccc(Cl)cc1/C2=C/c1ccc(Cl)cc1 (centres unmarked) [LUM, Lumefantrine]
microsomal stability (60 min), Clint [1]: Clint = <7 μL/min/mg^d
plasma protein binding [2]: >99^d %
cured (Plasmodium berghei [8]; oral 4 × 30 mg/kg): 3/3

Compound: Cc1cc(Nc2ccc(S(F)(F)(F)(F)F)cc2)n2nc(C(C)(F)F)nc2n1 [DSM265, reference compound]
day of recrudescence of parasites (P. falciparum Dd2 Polδ; 12 nM (3-fold IC50), inoculum 2 × 10^7 per flask, all three replicate flasks): 16 days
